# Reference: a melting point compilation (Tetko et al.; mined from patent text by program, amines drawn as free bases though some values may be those of a salt)
row,melting point [°C],SMILES
1,186 to 188,CCN1c2ncccc2C(=O)N(C)c2ccc(-c3cnn(C(C)=O)c3)nc21
2,173 to 177,COC(=O)c1cc2cc(C(=O)CN3CCN(c4ccncc4)CC3)ccc2o1
3,140 to 143,CC(C)(C)c1ccc(C2(C)CC(=Cc3ccccc3)CC2=O)cc1 (configuration not stated)
4,157 to 158,COc1cc2c(c3c1OC(C)(C)C3)C(c1cccc(N(C(C)=O)c3cccnc3)c1)=NC(C)(C)C2
5,184,CCc1cc(C#N)cc(C(=O)Nc2ccc(F)cn2)n1
6,116 to 117,O=C(Nc1ccc(Oc2ccnc(NCC3CC3)n2)c2ccccc12)c1cc(F)cc(N2CCOCC2)c1
7,346 to 348,COc1ccc(Cc2c(C)c3c(N)nc(N)nc3[nH]c2=O)cc1OC
8,173 to 177,CCOCc1cnc2c(NC(=O)c3c(Cl)cccc3Cl)cccc2c1N1CCN(C)C1=O
9,160 to 168,CCOC(=O)c1ncc2[nH]c3cccc(Cc4ccccc4)c3c2c1COC
10,109 to 110,COc1ccc2c(c1)C1=C(SCC3(CCN(CC(O)COc4ccc(Cl)cc4)CC3)O1)C(=O)C2=O (configuration not stated)
11,140 to 142,COCCOc1ccc(CCC(=O)NS(=O)(=O)c2ccc(Cl)cc2)c(Oc2ncc(C(F)(F)F)cc2Cl)c1
12,238 to 240,CC(C)(C)OC(=O)NCCNC(=O)c1cc(-c2ccccc2)c(=O)n2c1-c1ccccc1C2
13,112 to 114,O=C(CN1CCC(Cc2ccccc2)CC1)Nc1cccc(NCc2ccccc2)c1
14,102 to 104,Cc1ccc(C(=O)Nc2cccc(C(F)(F)F)c2)cc1-c1ccc2ncsc2c1
15,50 to 53,Cc1cc(Oc2c(Cl)cc(C(F)(F)F)cc2Cl)nn1C(=O)NCc1ccccc1
16,215 to 220,O=C1CC2(CCCC2)C(=O)N1c1cc(Cc2n[nH]c(=O)c3ccccc23)ccc1F
17,35,CCCCc1ccc(-c2ccc(CCc3ccc(F)cc3)cc2)c(F)c1
18,135 to 137,Cc1ccc(Cc2cnc(NCCCCc3cc(CN(C)C)ccn3)[nH]c2=O)cn1
19,215 to 216,NC(Cc1ccccc1)C(=O)Nc1nc2ccccc2c(=O)o1 (configuration not stated)
20,235,O=C(O)COc1ccc(-c2nc3cnccc3[nH]2)c(O)c1
21,125 to 128,CC(=O)CCC1(C(N)=O)c2ccccc2-c2ccccc21
22,150 to 175,CC1CC(=O)NN=C1c1ccc(NN=C(c2ccc(O)cc2O)c2ccc(O)cc2O)cc1 (configuration not stated)
23,166 to 167,COc1cc2c(cc1OC)CCC(C(=O)N1CCN(C(=O)c3ccc(OC)c(OC)c3OC)CC1)=C2
24,195 to 196,CC(C)N1C(=O)c2cnc(-c3ccccc3)nc2Nc2ccccc21
25,174 to 176,O=C1c2ccccc2C(=O)N1C[C@H]1COc2ccc(Cl)cc2O1

row,melting point [°C],SMILES
1,140,Cc1cc(CNC(=O)c2cc(-c3ccc(C(C)(C)C)cc3)nn2CCN2CCOCC2)ccc1OC(C)(C)C(=O)O
2,107 to 108,Cc1oc(-c2ccccc2)nc1CCOc1ccc(N)cn1
3,219 to 220,CCCP(=O)(CCC)Cc1ccc(NC(=O)C2=Cc3cc(-c4ccc(C)cc4)ccc3OCC2)cc1
4,184 to 185,CCN(CCOC)C(=O)c1cc(-c2ccccc2)c(=O)n2c1-c1cc(Cl)ccc1CN2
5,157 to 161,O=C(O)c1cc(Oc2cc(Cl)c(Cl)cc2Cl)ccc1[N+](=O)[O-]
6,205 to 208,CN1C(=O)CC[C@]2(C)c3ccc(C#Cc4ccccc4)cc3CC[C@@H]12
7,165 to 166,COc1ccc(S(=O)(=O)N2CCc3cccc(-c4ccc(CN(C)C)cc4)c32)cc1
8,179 to 181,O=C(O)C1CCc2c(c3ccccc3n2C(=O)c2cccc(Cl)c2)C1 (configuration not stated)
9,97 to 98,CCOC(=O)Cc1ccc(-c2nc(COc3ccc(CO)cc3OC)c(C)o2)cc1
10,96 to 98,O=C(CCCCCNC(=O)c1ccc2ccccc2c1)NO
11,267 to 269,NC(=O)c1nc(-c2cccc(C3=Nc4ccc(-n5cccc5)cc4NC(=O)C3)c2)cs1
12,188 to 191,CCCC1=C(C(=O)OCC)C(c2c(OC)ccc3ccccc23)c2c[nH]nc2N1 (configuration not stated)
13,> 250,Cc1c(-c2cc(Cl)cc(Cl)c2)ccc2nc(N)nc(N)c12
14,153 to 155,CC(=O)N1CCc2ccc(/C=C/CCN3CCC(c4ccc(Cl)cc4)CC3)cc2CC1
15,160 to 165,N#C[C@@H](Cc1ccccc1)Oc1c(Br)cc(-c2c3ccccc3c(Br)c3sc4ccccc4c23)cc1Br
16,145 to 146,CN(C)c1ncc(C(=O)CNCC(O)c2cccc(OC(=O)C(C)(C)C)c2)c(-c2ccccc2)n1 (configuration not stated)
17,105,CCCCCCCNC(=O)N(C)c1cccc(-c2ccc(CC(Nc3ccccc3C(=O)c3ccccc3)C(=O)O)cc2)c1 (configuration not stated)
18,183,Cc1c[nH]c(-c2nc([C@H]3CCCN(C(=O)c4ccc(F)cc4)C3)no2)c1
19,47 to 48,C1=CCC(Cc2ccc(-c3ccccc3)cc2)C1
20,125,C=CCN1CCN(c2cc(-c3ccccc3)c3ccc(=O)ccn23)CC1
21,146 to 147,COc1cc(COc2cc(CO)n(-c3ccccc3)n2)ccc1OCc1nc(-c2ccccc2)oc1C
22,184 to 185,O=C(O)CCC(=O)c1ccc(-c2ccc(Cl)cc2)cc1
23,102 to 103,Cc1cc2c(s1)CCCC1CC(=O)N(c3ccccc3)N=C21 (configuration not stated)
24,138 to 141,C=CCOC(=O)N1CCC[C@@H](OC)[C@@H]1CC(=O)Cn1cnc2cc(Cl)c(Oc3ccc(Cl)cc3)cc2c1=O (relative stereo)
25,121,COc1ccc(-c2noc(C3CCCN(C(=O)c4ccccc4)C3)n2)cc1 (configuration not stated)

# The next lines start with the molecule.
row,SMILES,melting point [°C]
1,CCc1cccc(C(C)C)c1N1C(=O)CCN(CC)C1=S,129 to 132
2,CCOC(=O)c1cn2c(n1)SCC2,107 to 109
3,C[C@@H](N1CCN(S(=O)(=O)c2ccc([N+](=O)[O-])cc2)CC1)[C@](O)(Cn1cncn1)c1ccc(F)cc1F,160 to 162
4,O=c1oc(C(F)F)nc2c(C(F)(F)F)cccc12,82
5,CCCN(Cc1ccc(NCCN(CC)CC)c2c(=O)c3ccccc3sc12)S(C)(=O)=O,142 to 143
6,O=C1OC(CO)CN1c1ccccc1 (configuration not stated),122 to 124
7,Cc1ccccc1-c1nn(C(C)(C)C(=O)N(C)C)cc1C,145 to 147
8,CSc1nc2ccc(Br)cc2o1,95 to 96
9,CN(C)c1ccncc1CCCOc1ccccc1OCCCC(=O)O,106 to 108
10,N#CCOS(=O)(=O)c1cccc([N+](=O)[O-])c1,66 to 69
11,Nc1ccccc(Br)c1=O,133 to 135
12,COc1ccc(Oc2ccccc2)c(NS(C)(=O)=O)c1,110 to 111
13,Cc1cc([N+](=O)[O-])c(Cl)cc1Cl,40 to 44
14,COCc1ccc(N=C2NCCN2)c(Cl)c1,108 to 110
15,CC(C(=O)O)c1ccc(I)cc1 (configuration not stated),101 to 102
16,C=C1CC2(CN3CCC2CC3)SC1C (configuration not stated),164 to 168
17,O=[N+]([O-])c1cccc(N2CCOCC2)c1,87 to 90
18,CCOC1Nc2c(ccc(OC)c2O)C(=O)N2CCCC12 (configuration not stated),155 to 158
19,Cc1cc2cc(C3(O)CCN(C)CC3)ccc2o1,118 to 120
20,c1ccc(-c2nnc(-c3ccc(CN4CCCCCC4)s3)o2)cc1,95 to 97
21,Nc1ncc(Cl)c(CN2CCCC2)c1Cl,98 to 101
22,CCOC(=O)N1CCN(C(C#N)c2ccc(OC)c(OC)c2OC)CC1 (configuration not stated),138 to 139
23,O=C(O)C(CBr)(CBr)CBr,83 to 86
24,CC(C)(C)OC(=O)CO/N=C/c1cccc([N+](=O)[O-])c1,110
25,CC(=O)CCC(=S)N(CC(=O)O)C1Cc2ccccc2C1,120 to 122
26,CSC1C(O)C(CO)OC1n1ccc(NC(=O)c2ccccc2)nc1=O (configuration not stated),193 to 194

row,SMILES,melting point [°C]
1,CCOc1ccc(O)c(F)c1F,73
2,O=[N+]([O-])c1ccc2nc(CS(=O)c3ccccn3)[nH]c2c1 (configuration not stated),207 to 209
3,O=C1C=C(O[C@@H]2c3cc(C(F)(F)C(F)(F)F)ccc3OC(CF)(CF)[C@H]2O)CC1 (relative stereo),165 to 167
4,CNC(=S)NCCCSCc1c[nH]cn1,118 to 120
5,CCCN(CCC)CCC1=CC(=O)CCC1,95 to 97
6,CC1(C)CC(NS(C)(=O)=O)c2ccccc21 (configuration not stated),117 to 119
7,CS(=O)(=O)NC(CCCCCc1ccc(Cl)cc1)C(=O)O (configuration not stated),73 to 75
8,Cc1cccc(OC(C)C)c1S(N)(=O)=O,78
9,Clc1ccc2c(c1)Cc1cc(Cl)ccc1OCCOCCOCCOCCO2,144
10,O=C(O)c1cc(-c2cccc(C(F)(F)F)c2)ns1,162 to 164
11,COC(=O)c1cc2ccoc2s1,86 to 88
12,O=C1Nc2ccccc2N(C(=O)Cl)c2c1csc2Cl,158 to 161
13,CCCCCCCCCCCCCCCCNS(=O)(=O)c1ccc(Cl)c([N+](=O)[O-])c1,91 to 93
14,CC(Cc1ccccc1)C1CC=C2C3=C(CCC21C)C1(C)CCC(O)CC1CC3 (configuration not stated),156 to 157
15,CC1(CN2CCC(Oc3ccc(C(F)(F)F)cc3)CC2)Cn2cc([N+](=O)[O-])nc2O1 (configuration not stated),113 to 114
16,CC(C)(C)OC(=O)N1CCN(c2c(F)cc(NC(=O)OCc3ccccc3)cc2F)CC1,171 to 172
17,COc1cc(CC(C)NC(=O)c2ccccc2)cc2c1OC(C)(C)C2 (configuration not stated),141 to 142
18,N#Cc1ccc2[nH]cc(CCN)c2c1,102 to 105
19,NC1CCN(c2cccc(Cl)n2)CC1,36 to 38
20,CC1=CCC(=C2C(=O)C3(CS(=O)(=O)O)CCC2C3(C)C)C=C1 (configuration not stated),220
21,C=CC(=O)NCN1CCCC1=O,73 to 74
22,CC12CCC3C(CC4OC45CC(O)CCC35C)C1CCC2=O (configuration not stated),197 to 200
23,CC(C)OC(=O)CSc1ncnc2c(O)n(C)nc12,192 to 194
24,CC(C)(C)c1ccc2c(c1)C=C(C(=O)O)C(C(F)(F)F)O2 (configuration not stated),171 to 173
25,CCCCCCCCCCCC1CC(=O)C(CCCCCC)C(=O)O1 (configuration not stated),112 to 114
26,O=C(O)c1ccc2c(c1)C(=O)NC(C(Cl)(Cl)Cl)N2 (configuration not stated),> 280
